Measured values as given in ChEMBL document CHEMBL1149335, “Dual-acting agents that possess free radical scavenging and antithrombotic activities: design, synthesis, and evaluation of phenolic tetrahydro-beta-carboline RGD peptide conjugates” (Bioorg Med Chem Lett, 2006).
Numbered stars: 1 amine (or outer) side, 2 acyl side, 3 side chain; on linkers, the order of the positions; unused ones are H or OH. Square brackets hold non-standard residues; d marks the D form. Peptide text beside a SMILES is read from it. X1 = COc1cc(C2c3[nH]c4ccccc4c3CC(C(=O)[*:2])N2[*:1])cc(OC)c1O

Columns and labels:
Oryctolagus cuniculus [1] = species on record: Oryctolagus cuniculus; test: Effect on ADP-induced platelet aggregation in rabbit platelet-rich plasma at 10 uM; assay type: functional
Oryctolagus cuniculus [2] = species on record: Oryctolagus cuniculus; test: Effect on ADP-induced platelet aggregation in rabbit platelet-rich plasma at 1 uM; assay type: functional
Oryctolagus cuniculus [3] = species on record: Oryctolagus cuniculus; test: Effect on ADP-induced platelet aggregation in rabbit platelet-rich plasma at 0.1 uM; assay type: functional
Rattus norvegicus [4] = test: Decrease in weight of dry thrombus in rat at 5 umol/kg; assay type: functional
Rattus norvegicus [5] = test: Decrease in weight of wet thrombus in rat at 5 umol/kg; assay type: functional
Oryctolagus cuniculus [6] = species on record: Oryctolagus cuniculus; test: Effect on PAF-induced platelet aggregation in rabbit platelet-rich plasma at 0.1 uM; assay type: functional
Oryctolagus cuniculus [7] = species on record: Oryctolagus cuniculus; test: Effect on PAF-induced platelet aggregation in rabbit platelet-rich plasma at 1 uM; assay type: functional
Oryctolagus cuniculus [8] = species on record: Oryctolagus cuniculus; test: Effect on PAF-induced platelet aggregation in rabbit platelet-rich plasma at 10 uM; assay type: functional
PC-12 [9] = test: H2O2 radical scavenging activity assessed in PC12 cells; assay type: functional, cell-based; conditions: Rattus norvegicus
Rattus norvegicus [10] = species on record: Rattus norvegicus; test: NO radical scavenging activity assessed as inhibition of Ach-induced vasorelaxation in rat aorta at 0.01 uM; assay type: functional
Rattus norvegicus [11] = species on record: Rattus norvegicus; test: NO radical scavenging activity assessed as inhibition of Ach-induced vasorelaxation in rat aorta at 1 uM; assay type: functional
PC-12 [12] = test: NO radical scavenging activity assessed in PC12 cells; assay type: functional, cell-based; conditions: Rattus norvegicus
Rattus norvegicus [13] = species on record: Rattus norvegicus; test: NO radical scavenging activity assessed as inhibition of Ach-induced vasorelaxation in rat aorta at 0.1 uM; assay type: functional
PC-12 [14] = test: OH radical scavenging activity assessed in PC12 cells; assay type: functional, cell-based; conditions: Rattus norvegicus

EC50 (PC-12 [9]) [µM]	EC50 (PC-12 [12]) [µM]	EC50 (PC-12 [14]) [µM]	Compound	Activity (Oryctolagus cuniculus [1]) [%]	Activity (Oryctolagus cuniculus [2]) [%]	Activity (Oryctolagus cuniculus [3]) [%]	Activity (Rattus norvegicus [4]) [mg]	Activity (Rattus norvegicus [5]) [mg]	Activity (Oryctolagus cuniculus [6]) [%]	Activity (Oryctolagus cuniculus [7]) [%]	Activity (Oryctolagus cuniculus [8]) [%]	inhibition (Rattus norvegicus [10]) [%]	inhibition (Rattus norvegicus [11]) [%]	inhibition (Rattus norvegicus [13]) [%]
43.7	89.7	–	COc1cc(C2N[C@H](C(=O)O)Cc3c2[nH]c2ccccc32)cc(OC)c1O (some centres undefined)	27.33	46.65	54.88	7.27	43.76	55.8	51.42	36.34	10.9	79.9	57.2
30.6	87.6	95.4	COc1cc(C2NC(C(=O)N[C@@H](CCCN=C(N)N)C(=O)NCC(=O)N[C@@H](CC(=O)O)C(=O)N[C@@H](CO)C(=O)O)Cc3c2[nH]c2ccccc32)cc(OC)c1O (some centres undefined) (H-[X1]RGDS-OH)	11.33	28.31	49.37	5	28.01	55.62	34.59	28.61	12.8	91.9	60.7
67.9	92.8	90.4	COc1cc(C2NC(C(=O)N[C@@H](CCCN=C(N)N)C(=O)NCC(=O)N[C@@H](CC(=O)O)C(=O)N[C@@H](Cc3ccccc3)C(=O)O)Cc3c2[nH]c2ccccc32)cc(OC)c1O (some centres undefined) (H-[X1]RGDF-OH)	13.11	29.43	38	2.68	22.09	36.59	25.33	21.52	25.4	90.9	73.3
33.5	90.3	92.3	COc1cc(C2NC(C(=O)N[C@@H](CCCN=C(N)N)C(=O)NCC(=O)N[C@@H](CC(=O)O)C(=O)N[C@H](C(=O)O)C(C)C)Cc3c2[nH]c2ccccc32)cc(OC)c1O (some centres undefined) (H-[X1]RGDV-OH)	14.38	29.6	50.2	4.85	29.05	54.06	35.8	25.88	13.3	92.2	71.2

Second part, the compound before the results:

Compound	EC50 (PC-12 [9]) [µM]	EC50 (PC-12 [12]) [µM]	EC50 (PC-12 [14]) [µM]	Activity (Oryctolagus cuniculus [1]) [%]	Activity (Oryctolagus cuniculus [2]) [%]	Activity (Oryctolagus cuniculus [3]) [%]	Activity (Rattus norvegicus [4]) [mg]	Activity (Rattus norvegicus [5]) [mg]	Activity (Oryctolagus cuniculus [6]) [%]	Activity (Oryctolagus cuniculus [7]) [%]	Activity (Oryctolagus cuniculus [8]) [%]	inhibition (Rattus norvegicus [10]) [%]	inhibition (Rattus norvegicus [11]) [%]	inhibition (Rattus norvegicus [13]) [%]
N=C(N)NCCC[C@H](N)C(=O)NCC(=O)N[C@@H](CC(=O)O)C(=O)N[C@@H](CO)C(=O)O	–	–	–	16.6	39.62	52.5	7.62	42.9	56.69	36.47	22.03	–	–	–
CC(C)[C@H](NC(=O)[C@H](CC(=O)O)NC(=O)CNC(=O)[C@@H](N)CCCNC(=N)N)C(=O)O (H-RGDV-OH)	–	–	–	11.65	29.61	51.78	6.43	35.6	55.07	34.84	20.01	–	–	–
N=C(N)NCCC[C@H](N)C(=O)NCC(=O)N[C@@H](CC(=O)O)C(=O)N[C@@H](Cc1ccccc1)C(=O)O (H-RGDF-OH)	–	–	–	7.87	22.71	34.99	4.05	26.68	40.39	24.02	7.73	–	–	–
